Laboratory results: patent US11066414B2, “Cot modulators and methods of use thereof” (Gilead Sciences, Inc., priority 2015, dated 2021)
Read-outs that look alike come from different tables or passages of the source.

Key:
[1] = test system: TNFα; experiment: Cot Monocyte TNFα Cell Based Assay
[2] = molecular target: Human Cot (Homo sapiens (Human), UniProt P41279); experiment: High Throughput Cot Biochemical Assay
[3] = Homo sapiens, Monocyte, read-out: EC50 TNF, LPS-stimulated human monocytes, TNFα
[4] = IC50 HTRF, Cot HTRF (TR-FRET) biochemical assay
[5] = Homo sapiens, Monocyte, read-out: EC50 TNF, LPS-stimulated human monocytes, TNFα TR-FRET
[6] = IC50 HTRF, Cot HTRF (TR-FRET KinEASE) biochemical assay, 400 μM ATP
[7] = read-out: EC50 TNF, LPS-stimulated human monocytes, TNFα
[8] = read-out: IC50 HTRF, Cot HTRF (TR-FRET) biochemical assay

Human Cot, sequence (P41279 30-397): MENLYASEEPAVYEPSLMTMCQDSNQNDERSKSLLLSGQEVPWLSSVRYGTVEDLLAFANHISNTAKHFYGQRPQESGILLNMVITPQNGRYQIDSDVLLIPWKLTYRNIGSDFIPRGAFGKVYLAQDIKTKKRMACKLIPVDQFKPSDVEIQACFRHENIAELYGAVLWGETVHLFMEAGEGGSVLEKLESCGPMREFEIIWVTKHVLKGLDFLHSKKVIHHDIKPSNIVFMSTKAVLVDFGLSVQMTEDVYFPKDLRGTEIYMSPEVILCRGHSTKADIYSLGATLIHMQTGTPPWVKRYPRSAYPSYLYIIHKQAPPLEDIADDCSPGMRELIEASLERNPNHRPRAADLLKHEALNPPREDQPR

Row | Compound | EC50 [1, 3] | IC50 [2, 4] | further results
1 | Cc1nc(F)ccc1[C@H](Nc1cc(F)c2ncc(C#N)c(NCC(C)(C)C)c2c1)c1cn(C2(C)CC2)nn1 [Example 488, (S)-8-fluoro-6-(((6-fluoro-2-methylpyridin-3-yl)(1-(1-methylcyclopropyl)-1H-1,2,3-triazol-4-yl)methyl)amino)-4-(neopentyl-amino)quinoline-3-carbonitrile] | 79 nM | 3 nM | 
2 | Cc1nc(F)ccc1[C@H](Nc1cc(Cl)c2ncc(C#N)c(NCC(C)(C)C)c2c1)c1nnn(C2CC2)c1Cl [Example 662, (S)-8-chloro-6-(((5-chloro-1-cyclopropyl-1H-1,2,3-triazol-4-yl)(6-fluoro-2-methylpyridin-3-yl)methyl)amino)-4-(neopentylamino)quinoline-3-carbonitrile] | 335 nM | 6 nM | 
3 | C[C@@H](CF)n1cc([C@@H](Nc2cc(C#N)c3ncc(C#N)c(NCC(C)(C)C)c3c2)c2cccc3ncccc23)nn1 [Example 892, 6-(((S)-(1-((S)-1-fluoropropan-2-yl)-1H-1,2,3-triazol-4-yl)(quinolin-5-yl)methyl)amino)-4-(neopentylamino)quinoline-3,8-dicarbonitrile] |  |  | EC50 [1, 5]: 44 nM; IC50 [2, 6]: 2 nM
4 | [2H][C@](Nc1cc(Cl)c2ncc(C#N)c(N[C@H](CC)c3ccccc3)c2c1)(c1cccnc1)c1cn(C2CC2)nn1 [Example 159, 8-chloro-6-(((S)-(1-cyclopropyl-1H-1,2,3-triazol-4-yl)(pyridin-3-yl)methyl-d)amino)-4-(((R)-1-phenylpropyl)amino)quinoline-3-carbonitrile] | 95 nM | 2 nM | 
5 | Cc1ncccc1[C@H](Nc1cc(Cl)c2ncc(C#N)c(Nc3cnc(F)c(F)c3)c2c1)c1cn(C2CC2)nn1 [Example 150, (S)-8-chloro-6-(((1-cyclopropyl-1H-1,2,3-triazol-4-yl)(2-methylpyridin-3-yl)methyl)amino)-4-((5,6-difluoropyridin-3-yl)amino)quinoline-3-carbonitrile] | 154 nM | 4 nM | 
6 | C[C@@H](CF)n1cc([C@@H](Nc2cc(Cl)c3ncc(C#N)c(NCC(C)(C)C)c3c2)c2cccc3c(=O)n(C)ccc23)nn1 [Example 778, 8-chloro-6-(((S)-(1-((S)-1-fluoropropan-2-yl)-1H-1,2,3-triazol-4-yl)(2-methyl-1-oxo-1,2-dihydroisoquinolin-5-yl)methyl)amino)-4-(neopentylamino)quinoline-3-carbonitrile] | 30 nM | 4 nM | 
7 | Cc1ncccc1[C@H](Nc1cc(Cl)c2ncc(C#N)c(N[C@@H](CO)c3ccccc3)c2c1)c1c[nH]nn1 [Example 219, 8-chloro-4-(((R)-2-hydroxy-1-phenylethyl)amino)-6-(((S)-(2-methylpyridin-3-yl)(1H-1,2,3-triazol-4-yl)methyl)amino)quinoline-3-carbonitrile] | > 10000 nM | 4450 nM | 
8 | Cc1nc(F)ccc1[C@H](Nc1cc(Cl)c2ncc(C#N)c(NCC(C)(C)C(F)(F)F)c2c1)c1cn(C2(C(F)(F)F)CC2)nn1 [Example 721, (S)-8-chloro-6-(((6-fluoro-2-methylpyridin-3-yl)(1-(1-(trifluoromethyl)cyclopropyl)-1H-1,2,3-triazol-4-yl)methyl)amino)-4-((3,3,3-trifluoro-2,2-dimethylpropyl)amino)quinoline-3-carbonitrile] | 109 nM | 6 nM | 
9 | [2H][C@](Nc1cc(Cl)c2ncc(C#N)c(Nc3cnc(F)c(Cl)c3)c2c1)(c1ccc(F)nc1)c1cn(C2CC2)nn1 [Example 139, (S)-8-chloro-4-((5-chloro-6-fluoropyridin-3-yl)amino)-6-(((1-cyclopropyl-1H-1,2,3-triazol-4-yl)(6-fluoropyridin-3-yl)methyl-d)amino)quinoline-3-carbonitrile] | 92 nM | 2 nM | 
10 | Cn1cc2c([C@H](Nc3cc(Cl)c4ncc(C#N)c(NCC(C)(C)C)c4c3)c3cn(C4(C(F)(F)F)CC4)nn3)cccc2n1 [Example 544, (S)-8-chloro-6-(((2-methyl-2H-indazol-4-yl)(1-(1-(trifluoromethyl)cyclopropyl)-1H-1,2,3-triazol-4-yl)methyl)amino)-4-(neopentylamino)quinoline-3-carbonitrile] | 210 nM | 8 nM | 
11 | Cc1nc(F)ccc1[C@H](Nc1cc(Cl)c2ncc(C#N)c(NCC(C)(C)C(F)(F)F)c2c1)c1cn(C2(C(F)F)CC2)nn1 [Example 727, (S)-8-chloro-6-(((1-(1-(difluoromethyl)cyclopropyl)-1H-1,2,3-triazol-4-yl)(6-fluoro-2-methylpyridin-3-yl)methyl)amino)-4-((3,3,3-trifluoro-2,2-dimethylpropyl)amino)quinoline-3-carbonitrile] | 48 nM | 3 nM | 
12 | Cc1nc2cccc([C@H](Nc3cc(C#N)c4ncc(C#N)c(NCC(C)(C)C)c4c3)c3cn(C4(C(F)(F)F)CC4)nn3)c2s1 [Example 430, (S)-6-(((2-methylbenzo[d]thiazol-7-yl)(1-(1-(trifluoromethyl)cyclopropyl)-1H-1,2,3-triazol-4-yl)methyl)amino)-4-(neopentylamino)quinoline-3,8-dicarbonitrile] | 214 nM | 5 nM | 
13 | CC(C)(C)N1CCC(n2cc([C@@H](Nc3cc(Cl)c4ncc(C#N)c(Nc5ccc(F)c(Cl)c5)c4c3)c3csc(N4CCOCC4)n3)nn2)CC1 [Example 300] |  |  | EC50 [1, 7]: 165 nM; IC50 [2, 8]: 7 nM
14 | COc1ccc(C(Nc2cc(Cl)c3ncc(C#N)c(NCC(C)(C)C)c3c2)c2cn(C3(C(F)(F)F)CC3)nn2)c(C)n1 (stereo not drawn) [Example 978, 8-chloro-6-(((6-methoxy-2-methylpyridin-3-yl)(1-(1-(trifluoromethyl)cyclopropyl)-1H-1,2,3-triazol-4-yl)methyl)amino)-4-(neopentylamino)quinoline-3-carbonitrile] |  |  | EC50 [1, 5]: 303 nM; IC50 [2, 6]: 9 nM
15 | Cc1n[nH]c2cccc([C@H](Nc3cc(Cl)c4ncc(C#N)c(NCC(C)(C)C)c4c3)c3cn(C4(C(F)F)CC4)nn3)c12 [Example 556, (S)-8-chloro-6-(((1-(1-(difluoromethyl)cyclo-propyl)-1H-1,2,3-triazol-4-yl)(3-methyl-1H-indazol-4-yl)methyl)amino)-4-(neopentyl-amino)quinoline-3-carbonitrile] | 120 nM | 8 nM | 
16 | Cc1nc(F)ccc1[C@H](Nc1cc(Cl)c2ncc(C#N)c(N[C@@H]3CCOCC3(C)C)c2c1)C1=CN(C2(C3CC3)CC2)NN1 [Example 669] |  |  | EC50 [1, 7]: 7 nM; IC50 [2, 8]: 1 nM
17 | Cc1nc(F)ccc1[C@H](Nc1cc(Cl)c2ncc(C#N)c(NCC(C)(C)C(F)(F)F)c2c1)c1nnn([C@@H](C)CF)c1F [Example 955, 8-chloro-6-(((S)-(5-fluoro-1-((S)-1-fluoropropan-2-yl)-1H-1,2,3-triazol-4-yl)(6-fluoro-2-methylpyridin-3-yl)methyl)amino)-4-((3,3,3-trifluoro-2,2-dimethylpropyl)amino)quinoline-3-carbonitrile] |  |  | EC50 [1, 5]: 50 nM; IC50 [2, 6]: 6 nM
18 | CC(C)(C)CNc1c(C#N)cnc2c(Cl)cc(N[C@H](c3cn(C4(C(N)=O)CCC4)nn3)c3cccc4ncccc34)cc12 [Example 566, (S)-1-(4-(((8-chloro-3-cyano-4-(neopentyl-amino)quinolin-6-yl)amino)(quinolin-5-yl)methyl)-1H-1,2,3-triazol-1-yl)cyclobutane-1-carboxamide] | 190 nM | 2 nM | 
